What was measured:
[1] = system: OVCAR cells; assay: Cell invasion assay; format: cell-based, human; details: 2 or 10 μM; control peptide p1 10 μM
Method: (§1) Cell invasion was analyzed using a BD BioCoat (registered trademark) Matrigel Invasion Chamber (Becton, Dickinson and Company). First, a certain amount of cells (about 1×10^5 cells/well) were treated with 2 μM, 8 μM, or 20 μM mouse dicalcin at room temperature for 20 minutes.
(§2) The treated cells were washed by centrifugation treatment, and then plated in the upper chamber of a transwell preliminarily coated with Matrigel, followed by performing culture using DMEM (+10% FBS) as a medium.
(§3) About 16 hours later, the invading cells that had migrated into the lower chamber were fixed using 4% paraformaldehyde/phosphate buffer at room temperature for 10 minutes, and then stained with crystal violet, followed by excision of the membrane, embedding on a slide, and counting of the cell number. The invasion index was calculated as {(number of stained cells)/(number of plated cells)}×100(%), and normalized by the later-mentioned result of Experimental Example 2-2, which was taken as 100(%).
The OVCAR-3 cell line (which may be referred to as “OVCAR cells” or, simply, “cells”), which is a commonly used cell line, was used. OVCAR cells were obtained from RIKEN BioResource Center (Cell No. RCB2135), and cultured in DMEM medium (+10% FBS) according to a conventional method. This line is a human ovarian cancer (adenocarcinoma)-derived cell line.
An analysis was carried out in the same manner as in Experimental Example 2-1 except that OVCAR cells were used as the cells, and that 8 μM or 20 μM human dicalcin was used instead of mouse dicalcin.
An analysis was carried out in the same manner as in Experimental Example 9-1 except that 20 μM BSA was used instead of human dicalcin.
An analysis was carried out in the same manner as in Experimental Example 2-1 except that OVCAR cells were used as the cells, and that 2 μM or 10 μM hDC-p6 was used as a partial peptide. Statistical analysis was carried out by unpaired Student t-test in order to analyze a significant difference.

[2] = system: OVCAR cells; assay: Cell binding experiment; set-up: species or system human; details: 5 μM rhodamine-labeled; calcium absent; control p1
[3] = system: PC-3 cells; assay: Cell binding experiment; set-up: species or system human; details: 5 μM rhodamine-labeled; calcium absent; control hDC-p1
Excerpt: The PC-3 cell line (which may be referred to as “PC-3 cells” or, simply, “cells”), which is a commonly used cell line, was used. PC-3 cells were obtained from RIKEN BioResource Center (Cell No. RCB2145), and cultured in DMEM medium (+10% FBS) according to a conventional method. This line is a human prostate cancer-derived cell line.

[4] = system: PC-3 cells; assay: Cell invasion assay; format: cell-based, human; details: 10 μM; control hDC-p1 10 μM
Method: as §1, §2, §3
An analysis was carried out in the same manner as in Experimental Example 2-1 except that PC-3 cells were used as the cells, and that 10 μM hDC-p6 was used as a partial peptide. Statistical analysis was carried out by unpaired Student t-test in order to analyze a significant difference.

[5] = system: human cancer tissues; assay: Cell binding experiment on paraffin sections of human cancer tissues
Method: After washing, analysis was carried out using a fluorescence microscope (Olympus Corporation).
An experiment was carried out in the same manner as in Experimental Example 15-1 except that a paraffin section derived from a human prostate cancer tissue (US Biomax Inc.) was used as a target.
An experiment was carried out in the same manner as in Experimental Example 15-1 except that a paraffin section derived from a human colorectal (colon) cancer tissue (US Biomax Inc.) was used as a target. The white dotted line indicates the border between the tumor area and the normal area.
An experiment was carried out in the same manner as in Experimental Example 15-1 except that a paraffin section derived from a human colorectal (rectal) cancer tissue (US Biomax Inc.) was used as a target. The white dotted line indicates the border between the tumor area and the normal area.
An experiment was carried out in the same manner as in Experimental Example 15-1 except that a paraffin section derived from a human breast cancer (breast ductal carcinoma) tissue (US Biomax Inc.) was used as a target.
An experiment was carried out in the same manner as in Experimental Example 15-1 except that a paraffin section derived from a human breast cancer (invasive lobular carcinoma) tissue (US Biomax Inc.) was used as a target. […]

[6] = system: OV2944 cells; assay: Cell binding experiment (fluorescently labeled protein/peptide, confocal microscope); set-up: species or system mouse
Method: The OV2944-HM-1 cell line (which may be referred to as “OV2944 cells” or, simply, “cells”), which is a commonly used cell line, was used. OV2944 cells were obtained from RIKEN BioResource Center (Cell No. RCB1483), and cultured in DMEM medium (+10% FBS) according to a conventional method.
Cultured cells were fixed on a glass plate (4% paraformaldehyde/phosphate buffer, room temperature, 10 minutes), and treated with sheep serum. Thereafter, mouse dicalcin (5 μM) fluorescently labeled with tetramethylrhodamine (TMR) was reacted with the cells in the presence of 1 mM CaCl2 (4° C., overnight). After washing with TBS buffer, analysis was carried out using a confocal microscope (Carl Zeiss). Further, cell nuclei were stained with DAPI.
An experiment was carried out in the same manner as in Experimental Example 1-1 except that the reaction was carried out in the presence of 1 mM EGTA (which may be referred to as “in the absence of calcium”).
An experiment was carried out in the same manner as in Experimental Example 1-1 except that immunostaining was carried out using an anti-mouse dicalcin antibody (Catalog No. MAB5167, R&D Systems) as a primary antibody, and an Alexa Fluor (registered trademark) 594-labeled anti-rat IgG antibody (Catalog No. A11007, Invitrogen) as a secondary antibody.
An experiment was carried out in the same manner as in Experimental Example 1-1 except that each of partial peptides p1 to p7 (5 μM) fluorescently labeled with rhodamine was used.

[7] = system: OV2944 cells; assay: Cell invasion assay (Matrigel Invasion Chamber); format: cell-based, mouse
Method: as §1, §2
About 16 hours later, the invading cells that had migrated into the lower chamber were fixed using 4% paraformaldehyde/phosphate buffer at room temperature for 10 minutes, and then stained with crystal violet, followed by excision of the membrane, embedding on a slide, and counting of the cell number.

[8] = system: OV2944 cells; assay: Cell migration assay; format: cell-based, mouse; details: 5 μM; versus p1 and no peptide
Method: The plasmid vector pDsRed2-C1 (Clontech), which expresses a fluorescent protein (DsRed2), was transfected into cells. […] The observation was carried out for 12 to 37 cells. Statistical analysis was carried out by unpaired Student t-test in order to analyze a significant difference.
An experiment was carried out in the same manner as in Experimental Example 8-1 except that no partial peptide was added.

[9] = system: OV2944 cells expressing the fluorescent protein tdTomato; assay: Observation of metastasis to liver after intraperitoneal cell transfer; format: in vivo, mouse; details: 3 nmoles/two days, Day 21, versus control peptide p1
Method: The plasmid vector ptdTomato-C1 (Clontech), which expresses the fluorescent protein tdTomato, was transfected into OV2944 cells, and, 24 to 48 hours later, the cells were suspended in phosphate buffer. Using a flow cytometer (FACS Aria, BD Biosciences), the OV2944 cells expressing the fluorescent protein tdTomato shown in FIG. 13A to FIG. 13C were purified.
(§4) The purified OV2944 cells expressing the fluorescent protein tdTomato were transferred into the abdominal cavity of mice (B6C3F1 strain, 9 weeks old, female, CLEA Japan, Inc.) (1×10^5 cells/mouse). […] On Day 21, the abdominal organs were removed, and OV2944 cells expressing the fluorescent protein tdTomato in the liver were observed using a fluorescence stereomicroscope OV110 (Olympus Corporation).
FIG. 15-1B focuses on cell colonies. […] The number of colonies was counted, and a significant difference was analyzed by unpaired Student t-test.

[10] = system: OV2944 cells; assay: Analysis of survival after cell transfer (Kaplan Meier); format: in vivo, mouse
Method: as §4
Intraperitoneal injection was carried out in the same manner as in Experimental Example 13-1 and Experimental Example 13-2, and survival analysis was carried out thereafter to provide Experimental Example 14-1 and Experimental Example 14-2. For the survival curve according to the Kaplan Meier method, a significant difference was analyzed by log-rank test.

[11] = Glycolipid sugar chain array binding experiment; details: 5 μM fluorescently labeled, 4° C. overnight
[12] = system: GM1b on the plasma membrane of OV2944 cells; assay: GM1b inhibition assay in relation to binding of partial peptide p6 to OV2944 cells; set-up: species or system mouse; details: 5 μM TMR-labeled p6
Method: Cultured OV2944 cells were fixed on a glass plate (4% paraformaldehyde/phosphate buffer, room temperature, 10 minutes), and treated with sheep serum. […] After washing, analysis was carried out using a confocal microscope (Carl Zeiss).
An experiment was carried out in the same manner as in Experimental Example 18-1 except that GM1b was absent.
Further, an experiment was carried out in the same manner as in Experimental Example 18-1 and Experimental Example 18-2 for cases where GM1b was used alone at a concentration of 0, 10, or 100 μM, where GT1c was used alone at a concentration of 100 μM, and where GM1b and GT1c were used in combination at a concentration of 100 μM each.

[13] = system: Erk1/2; assay: Suppression of Erk1/2 signaling (Western blotting, pErk/Erk); format: cell-based, mouse
Excerpt: The OV2944 cells were extracted and sonicated, and then analyzed for the activity of Erk1/2 by Western blotting. An antibody (Cell Signaling) against Erk1/2 protein in the phosphorylated state (that is, the activated state) (pErk1/2), or an antibody (Santa Cruz) against total Erk1/2 protein including the protein in the phosphorylated state and the protein in the dephosphorylated state (Erk1/2), was used therefor. The ratio between pErk1/2 and Erk1/2 (pErk/Erk) in the Western blot image was calculated, and the data were normalized by taking the value at time 0 as 1.

Row | Substance | cell invasion (invasion index) [1] | binding to the cells (fluorescence intensity) [2] | binding to the cells (fluorescence intensity) [3] | cell invasion (invasion index) [4] | binding to cancer cells of tissue sections ([5]; 5 μM, 4° C. overnight, ovarian, prostate, colon, rectal, breast (4 types), renal, lung, glioma) | determination of tumor area by fluorescence positive reaction ([5]; colon cancer section, blocking and peptide reaction together, 37° C., 1 hour) | cell-binding ability (fluorescence intensity) ([6]; 5 μM rhodamine-labeled partial peptides, ranking) | site of binding on cells ([6]; 5 μM, CD44 as plasma membrane control) | cell invasion, ranking of suppression ([7]; 8 μM each, versus 10 μM BSA) | cell invasion, concentration dependence ([7]; 0.2, 0.8, 2, 8, 20 μM) | cell migration (migration distance) [8] | number of colonies in the liver [9] | increase in average number of days of survival ([10]; Experimental Example 14-1 relative to 14-2 (p1)) | average number of days of survival ([10]; intraperitoneal, 3 nmoles/two days) | survival rate of mice ([10]; intraperitoneal, 3 nmoles/two days, versus control peptide p1, log-rank test) | target molecule candidate by binding to glycolipid sugar chains [11] | binding to OV2944 cell / plasma membrane in presence of GM1b ([12]; GM1b in the medium (10, 100 μM)) | binding ability to OV2944 cells in presence of GT1c ([12]; GT1c 100 μM) | Erk1/2 activity (pErk/Erk) ([13]; 5 μM p6 alone (absence of GM1b), 0-30 minutes) | Erk1/2 activity (pErk/Erk) with GM1b present ([13]; p6 and GM1b present)
1 | hDC-p6: partial peptide of human dicalcin, SEQ ID NO: 7, QLDFSEFLNLI (listed as Homo sapiens) | suppresses cell invasion in a concentration-dependent manner | binds to the cells | binds to the cells | suppresses cell invasion | binds to cancer cells of any of these tissues | tumor area could be determined | – | – | – | – | – | – | – | – | – | – | – | – | – | –
2 | partial peptide of mouse dicalcin, SEQ ID NO: 17, QLDFQEFLNLI (listed as Mus musculus) [p6] | – | – | – | – | – | – | highest cell-binding ability | binds to the plasma membranes of cells | suppresses cell invasion at the highest level | suppressed cell invasion in a concentration-dependent manner | suppresses migration of the cells | significantly smaller | 21% | 38.5 days | significantly suppresses a decrease in the survival rate | GM1b ganglioside was suggested | remarkably decreased | did not change | suppresses the Erk1/2 activity | disappearance of the Erk-suppressing action
